In ChEMBL document CHEMBL6103633 (J Med Chem, 2025):
Activity calls are given as the source filed them. The rule behind the calls is not given here.

Tests used:
[1] = molecular target: T1, Ornithine decarboxylase (Homo sapiens) (UniProt P11926); assay: Inhibition of human ODC in human Kelly cells assessed as reduction in spermine level at 500 microM incubated for 20 min by HPLC analysis; format: cell-based
T1 sequence (whole entry): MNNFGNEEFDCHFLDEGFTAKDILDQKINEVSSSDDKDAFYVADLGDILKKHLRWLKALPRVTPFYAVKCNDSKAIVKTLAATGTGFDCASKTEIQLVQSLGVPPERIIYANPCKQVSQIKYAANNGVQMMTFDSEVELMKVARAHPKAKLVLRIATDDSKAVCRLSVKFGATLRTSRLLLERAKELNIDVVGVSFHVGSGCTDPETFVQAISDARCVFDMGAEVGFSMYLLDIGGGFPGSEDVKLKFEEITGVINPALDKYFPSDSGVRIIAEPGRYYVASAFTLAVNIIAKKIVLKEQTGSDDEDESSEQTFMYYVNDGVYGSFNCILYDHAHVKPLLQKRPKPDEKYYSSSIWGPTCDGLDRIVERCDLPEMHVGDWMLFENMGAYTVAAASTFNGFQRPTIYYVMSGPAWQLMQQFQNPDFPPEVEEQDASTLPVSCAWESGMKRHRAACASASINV

[2] = molecular target: T1, Ornithine decarboxylase (Homo sapiens); assay: Inhibition of ODC in human Kelly cells at 500 uM incubated for 2 hrs by liquid scintillation analysis; format: cell-based
[3] = molecular target: T1, Ornithine decarboxylase (Homo sapiens); assay: Inhibition of ODC in human Kelly cells assessed as reduction in spermidine level at 500 microM incubated for 20 min by HPLC analysis; format: cell-based
[4] = molecular target: T1, Ornithine decarboxylase (Homo sapiens); assay: Inhibition of human ODC in human Kelly cells assessed as effect on putrescine level at 500 microM incubated for 20 min by HPLC analysis; format: cell-based
[5] = molecular target: T1, Ornithine decarboxylase (Homo sapiens); assay: Inhibition of full length C-terminal his-6 tagged human ODC extracted from Escherichia coli BL21 (DE3) cells at 50 uM incubated for 30 mins by liquid scintillation analysis relative to control
[6] = Cytotoxicity against Normal primary human neonatal fibroblast cell at 500 uM incubated for 72 hrs by SRB assay relative to control; format: toxicity, cell-based
[7] = Dissociation constant, pKa of the compound; format: physicochemical

| inhibition [1] | inhibition [2] | inhibition [3] | inhibition [4] | SMILES | also measured |
| --- | --- | --- | --- | --- | --- |
| Active | Active | Active | inactive | NCCCON |  |
|  |  |  |  | NOCC1CNC1 | inhibition [5]: 0% |
|  |  |  |  | NOC[C@@H]1CCCNC1 | Activity [6]: 0% |
|  |  |  |  | NOC[C@H]1CCCNC1 | Activity [6]: 0% |
| Active | Active | Active | inactive | NOCC1(F)CCNC1 (racemic) |  |
| Active | Active | Active | inactive | NCCC[C@](N)(C(=O)O)C(F)F |  |
|  |  |  |  | Cc1ncc(COP(=O)(O)O)c(/C=N/OCCCN)c1O | pKa [7]: ~5.9 |
